From the NIST ThermoML archive (doi:10.1021/je801006q)

Columns and labels:
[1] = xn = mol fraction of the nth substance listed; conditions: 101 kPa, Liquid
[2] = excess molar enthalpy (molar enthalpy of mixing); xn = mol fraction of the nth substance listed; conditions: 298.15 K, 101 kPa, Liquid, Calvet calorimetry
[3] = 101.33 kPa, Liquid

O=C1CCCN1 [2-pyrrolidinone] + CC(C)(C)O
[1]
Conditions	mass density, 293.15 K [kg/m3]	mass density, 298.15 K [kg/m3]	mass density, 303.15 K [kg/m3]	viscosity, 293.15 K [mPa·s]	viscosity, 298.15 K [mPa·s]	viscosity, 303.15 K [mPa·s]
x1 = 0.0786	806.96	802	797.13	4.778	3.771	3.586
x1 = 0.1832	836.27	831.45	826.69	3.931	3.23	2.732
x1 = 0.2489	855.32	850.57	845.86	3.399	2.698	2.053
x1 = 0.3105	873.59	868.94	864.29	2.824	2.109	1.481
x1 = 0.3875	897.03	892.52	887.93	2.167	1.547	0.786
x1 = 0.4556	918.3	913.93	909.39	1.857	1.333	0.464
x1 = 0.5003	932.55	928.28	923.8	1.665	–	–
x1 = 0.5734	956.36	952.27	947.87	1.87	1.496	–
x1 = 0.6544	983.51	979.59	975.32	2.478	2.049	1.049
x1 = 0.7236	1007.36	1003.63	999.49	3.648	3.252	2.12
x1 = 0.7995	1034.28	1030.79	1026.74	5.671	5.011	3.681
x1 = 0.8672	1059.06	1055.73	1051.83	8.035	7.463	5.849
x1 = 0.9237	1080.26	1077.13	1073.37	10.94	9.609	8.042
x1 = 0.9823	1102.87	1099.95	1096.31	14.34	12.12	9.894

[2]
Conditions	excess molar enthalpy [kcal/mol]
x1 = 0.0498	0.0345
x1 = 0.1189	0.0582
x1 = 0.1932	0.077
x1 = 0.2551	0.0902
x1 = 0.3309	0.102
x1 = 0.3946	0.106
x1 = 0.4411	0.106
x1 = 0.4943	0.103
x1 = 0.5766	0.0947
x1 = 0.6806	0.081
x1 = 0.7422	0.0687
x1 = 0.8435	0.0413
x1 = 0.9312	0.0257

O=C1CCCN1 [2-pyrrolidinone]
[3]
Conditions	mass density [kg/m3]	viscosity [mPa·s]
293.15 K	1109.84	15.84
298.15 K	1106.98	13.07
303.15 K	1103.38	10.69

CCC(C)O (centres undefined) [butan-2-ol]
[3]
Conditions	mass density [kg/m3]	viscosity [mPa·s]
293.15 K	805.54	3.625
298.15 K	802.06	2.998
303.15 K	798.45	2.489

O=C1CCCN1 [2-pyrrolidinone] + CCCCO
[1]
Conditions	mass density, 293.15 K [kg/m3]	mass density, 298.15 K [kg/m3]	mass density, 303.15 K [kg/m3]	viscosity, 293.15 K [mPa·s]	viscosity, 298.15 K [mPa·s]	viscosity, 303.15 K [mPa·s]
x1 = 0.0956	834.48	830.55	826.97	3.3	2.884	2.456
x1 = 0.1784	856.72	852.86	849.3	3.346	3.05	2.431
x1 = 0.2445	874.89	871.15	867.57	3.373	3.071	2.433
x1 = 0.3055	892	888.27	884.73	3.548	3.028	2.504
x1 = 0.3874	915.45	911.87	908.31	3.595	3.119	2.638
x1 = 0.4434	931.79	928.29	924.72	3.893	3.426	2.899
x1 = 0.4996	948.45	945.03	941.5	4.198	3.74	3.211
x1 = 0.5944	977.19	973.95	970.39	5.167	4.682	3.921
x1 = 0.6573	996.67	993.5	990.11	6.087	5.497	4.578
x1 = 0.7236	1017.57	1014.53	1011.05	7.353	6.572	5.384
x1 = 0.7983	1041.7	1038.72	1035.32	9.017	8.117	6.428
x1 = 0.8554	1060.58	1057.59	1054.15	10.75	9.56	7.469
x1 = 0.9121	1079.61	1076.71	1073.26	12.57	11.01	8.726
x1 = 0.9778	1102.22	1099.35	1095.78	14.88	12.7	10.3

[2]
Conditions	excess molar enthalpy [kcal/mol]
x1 = 0.0564	0.0234
x1 = 0.1225	0.039
x1 = 0.1877	0.0496
x1 = 0.2452	0.0563
x1 = 0.3266	0.0598
x1 = 0.3884	0.0603
x1 = 0.4453	0.0581
x1 = 0.5022	0.0556
x1 = 0.5963	0.0493
x1 = 0.6844	0.0412
x1 = 0.7452	0.0346
x1 = 0.8553	0.0227
x1 = 0.9278	0.0126

CC(C)CO [2-methyl-1-propanol]
[3]
Conditions	mass density [kg/m3]	viscosity [mPa·s]
293.15 K	801.28	3.943
298.15 K	797.74	3.332
303.15 K	794.32	2.884
